Measured values reported in US9255085B2, “Carboxamide compounds and methods for using the same” (Rigel Pharmaceuticals, Inc., priority 2008, dated 2016).

target: AMPK; experiment: AMPK activation, enzyme-linked immunosorbent assay; type: biochemical; details: ELISA, Table 2
Procedure: Compounds 1-13 were assayed for their ability to activate AMPK using an enzyme-linked immunosorbent assay.
Compounds 14-16 were assayed for their ability to activate AMPK using an enzyme-linked immunosorbent assay.
Compounds 17-18 were assayed for their ability to activate AMPK using an enzyme-linked immunosorbent assay.
Compounds 19-22 were assayed for their ability to activate AMPK using an enzyme-linked immunosorbent assay.
Compounds 23-26 were assayed for their ability to activate AMPK using an enzyme-linked immunosorbent assay.
Compounds 27-33 were assayed for their ability to activate AMPK using an enzyme-linked immunosorbent assay.
Compounds 34-42 were assayed for their ability to activate AMPK using an enzyme-linked immunosorbent assay.

`O=C(c1ccc(F)cc1)N1CC2CC1CN2C(=O)c1nc2ccc(OC3CCN(c4ccc(C(F)(F)F)cc4)CC3)cc2o1` (stereo not drawn) [Compound 13, (5-(4-fluorobenzoyl)-2,5-diazabicyclo[2.2.1]heptan-2-yl)(6-(1-(4-(trifluoromethyl)phenyl)piperidin-4-yloxy)benzo[d]oxazol-2-yl)methanone] and `N#Cc1ccc(C(=O)N2CC3CC2CN3C(=O)c2nc3ccc(OC4CCN(c5ccc(C(F)(F)F)cc5)CC4)cc3o2)cc1` (stereo not drawn) [Compound 12, 4-(5-(6-(1-(4-(trifluoromethyl)phenyl)piperidin-4-yloxy)benzo[d]oxazole-2-carbonyl)-2,5-diazabicyclo[2.2.1]heptane-2-carbonyl)benzonitrile] cannot be ordered by EC50: < 100 nM for the first, < 100 nM for the second.

First: O=C(NC1CCNCC1)c1nc2ccc(OC3CCN(c4ccc(C(F)(F)F)cc4)CC3)cc2o1 [Compound 5, N-(Piperidin-4-yl)-6-(1-(4-(trifluoromethyl)phenyl)piperidin-4-yloxy)benzo[d]oxazole-2-carboxamide]
Second: O=C(NC1CCN(C(=O)c2ccc(F)cc2)CC1)c1nc2ccc(OC3CCN(c4ccc(C(F)(F)F)cc4)CC3)cc2o1 [Compound 4, N-(1-(4-Fluorobenzoyl)piperidin-4-yl)-6-(1-(4-(trifluoromethyl)phenyl)piperidin-4-yloxy)benzo[d]oxazole-2-carboxamide]
The EC50 of the first is higher: 10000 to 100000 nM for the first, < 100 nM for the second. The second is the more potent here.

`O=C(c1ccncc1)N1CC2CC1CN2C(=O)c1nc2ccc(OC3CCN(c4ccc(C(F)(F)F)cc4)CC3)cc2o1` (stereo not drawn) [Compound 11, (5-Isonicotinoyl-2,5-diazabicyclo[2.2.1]heptan-2-yl)(6-(1-(4-(trifluoromethyl)phenyl)piperidin-4-yloxy)benzo[d]oxazol-2-yl)methanone] and `NC(=O)c1ccc(CN2CC3CC2CN3C(=O)c2nc3ccc(OC4CCN(c5ccc(C(F)(F)F)cc5)CC4)cc3o2)cc1` (stereo not drawn) [Compound 9, 4-((5-(6-(1-(4-(Trifluoromethyl)phenyl)piperidin-4-yloxy)benzo[d]oxazole-2-carbonyl)-2,5-diazabicyclo[2.2.1]heptan-2-yl)methyl)benzamide] fall in the same range of EC50: 100 to 1000 nM for the first, 100 to 1000 nM for the second.

Work on `N#Cc1ccc(CN2CC3CC2CN3C(=O)c2nc3ccc(OC4CCN(c5ccc(C(F)(F)F)cc5)CC4)cc3o2)cc1` (stereo not drawn) [Compound 10, 4-((5-(6-(1-(4-(Trifluoromethyl)phenyl)piperidin-4-yloxy)benzo[d]oxazole-2-carbonyl)-2,5-diazabicyclo[2.2.1]heptan-2-yl)methyl)benzonitrile] yielded an EC50 of 100 to 1000 nM.

same assay, conditions: ELISA, Table 3

`O=C(NC1CCN(Cc2ccncc2)CC1)c1nc2ccc(OC3CCN(c4ccc(C(F)(F)F)cc4)CC3)cc2s1` [Compound 15, N-(1-(Pyridin-4-ylmethyl)piperidin-4-yl)-6-(1-(4-(trifluoromethyl)phenyl)piperidin-4-yloxy)benzo[d]thiazole-2-carboxamide] and `N#Cc1ccc(CN2CCC(NC(=O)c3nc4ccc(OC5CCN(c6ccc(C(F)(F)F)cc6)CC5)cc4s3)CC2)cc1` [Compound 16, N-(1-(4-Cyanobenzyl)piperidin-4-yl)-6-(1-(4-(trifluoromethyl)phenyl)piperidin-4-yloxy)benzo[d]thiazole-2-carboxamide] fall in the same range of EC50: 100 to 1000 nM for the first, 100 to 1000 nM for the second.

same assay, conditions: ELISA, Table 4

`N#Cc1ccc(CN2CCC(NC(=O)c3cn4ccc(OC5CCN(c6ccc(C(F)(F)F)cc6)CC5)cc4n3)CC2)cc1` [Compound 18, N-(1-(4-Cyanobenzyl)piperidin-4-yl)-7-(1-(4-(trifluoromethyl)phenyl)piperidin-4-yloxy)imidazo[1,2-a]pyridine-2-carboxamide] and `O=C(NC1CCN(Cc2ccncc2)CC1)c1cn2ccc(OC3CCN(c4ccc(C(F)(F)F)cc4)CC3)cc2n1` [Compound 17, N-(1-(Pyridin-4-ylmethyl)piperidin-4-yl)-7-(1-(4-(trifluoromethyl)phenyl)piperidin-4-yloxy)imidazo[1,2-a]pyridine-2-carboxamide] cannot be ordered by EC50: < 100 nM for the first, < 100 nM for the second.

same assay, conditions: ELISA, Table 5

Compared with `O=C(NC1CCNCC1)c1cnc(OC2CCN(c3ccc(C(F)(F)F)cc3)CC2)cn1` [Compound 20, N-(piperidin-4-yl)-5-(1-(4-(trifluoromethyl)phenyl)piperidin-4-yloxy)pyrazine-2-carboxamide], `CC(C)(C)OC(=O)N1CCC(NC(=O)c2cnc(OC3CCN(c4ccc(C(F)(F)F)cc4)CC3)cn2)CC1` [Compound 19, tert-butyl 4-(5-(1-(4-(trifluoromethyl)phenyl)piperidin-4-yloxy)pyrazine-2-carboxamido)piperidine-1-carboxylate] is lower in EC50: > 100000 nM for the first, 1000 to 10000 nM for the second. The second is the more potent here.

same assay, conditions: ELISA, Table 6

First: N#Cc1ccc(CN2CCC(NC(=O)c3cnc(OC4CCN(Cc5ccc(C(F)(F)F)cc5)CC4)s3)CC2)cc1 [Compound 25, N-(1-(4-Cyanobenzyl)piperidin-4-yl)-2-(1-(4-(trifluoromethyl)benzyl)piperidin-4-yloxy)thiazole-5-carboxamide]
Second: CC(C)(C)OC(=O)N1CCC(Oc2ncc(C(=O)NC3CCN(Cc4ccc(C#N)cc4)CC3)s2)CC1 [Compound 26, tert-Butyl 4-(5-(1-(4-cyanobenzyl)piperidin-4-ylcarbamoyl)thiazol-2-yloxy)piperidine-1-carboxylate]
The EC50 of the first is lower: < 100 nM for the first, 1000 to 10000 nM for the second. The first is the more potent here.

same assay, conditions: ELISA, Table 7

First: N#Cc1ccc(CN2CCC(NC(=O)c3ccc(C(=O)NC4CCN(Cc5ccccc5)CC4)cc3)CC2)cc1 [Compound 33, N^1-(1-Benzylpiperidin-4-yl)-N^4-(1-(4-cyanobenzyl)piperidin-4-yl)terephthalamide]
Second: N#Cc1ccc(CN2CCC(NC(=O)c3ccc(C(=O)NC4CCN(Cc5ccc(C(F)(F)F)cc5)CC4)cc3)CC2)cc1 [Compound 31, N^1-(1-(4-Cyanobenzyl)piperidin-4-yl)-N^4-(1-(4-(trifluoromethyl)benzyl)piperidin-4-yl)terephthalamide]
The EC50 of the first is higher: 10000 to 100000 nM for the first, < 100 nM for the second. The second is the more potent here.

First: N#Cc1ccc(CN2CCC(NC(=O)c3ccc(C(=O)N4CCN(c5ccc(Cl)cc5)CC4)cc3)CC2)cc1 [Compound 29, 4-(4-(4-Chlorophenyl)piperazine-1-carbonyl)-N-(1-(4-cyanobenzyl)piperidin-4-yl)benzamide]
Second: N#Cc1ccc(CN2CCC(NC(=O)c3ccc(C(=O)N4CCN(c5ccc(C(F)(F)F)cn5)CC4)cc3)CC2)cc1 [Compound 30, N-(1-(4-Cyanobenzyl)piperidin-4-yl)-4-(4-(5-(trifluoromethyl)pyridin-2-yl)piperazine-1-carbonyl)benzamide]
The EC50 of the first is higher: 10000 to 100000 nM for the first, < 100 nM for the second. The second is the more potent here.

same assay, conditions: ELISA, Table 8

First: O=C(NC1CCN(Cc2ccc(C(F)(F)F)cc2)CC1)c1ccc2c(c1)CN(Cc1ccc(F)cc1)CC2 [Compound 42, 2-(4-Fluorobenzyl)-N-(1-(4-(trifluoromethyl)benzyl)piperidin-4-yl)-1,2,3,4-tetrahydroisoquinoline-7-carboxamide]
Second: N#Cc1ccc(CN2CCc3ccc(C(=O)NC4CCN(Cc5ccc(C(F)(F)F)cc5)CC4)cc3C2)cc1 [Compound 39, 2-(4-Cyanobenzyl)-N-(1-(4-(trifluoromethyl)benzyl)piperidin-4-yl)-1,2,3,4-tetrahydroisoquinoline-7-carboxamide]
The EC50 of the first is lower: 100 to 1000 nM for the first, 1000 to 10000 nM for the second.

First: O=C(NC1CCN(Cc2cccnc2)CC1)c1ccc2c(c1)CN(Cc1ccc(F)cc1)CC2 [Compound 41, 2-(4-Fluorobenzyl)-N-(1-(pyridine-3-ylmethyl)piperidin-4-yl)-1,2,3,4-tetrahydroisoquinoline-7-carboxamide]
Second: N#Cc1ccc(CN2CCc3ccc(C(=O)NC4CCN(Cc5cccnc5)CC4)cc3C2)cc1 [Compound 38, 2-(4-Cyanobenzyl)-N-(1-(pyridin-3-ylmethyl)piperidin-4-yl)-1,2,3,4-tetrahydroisoquinoline-7-carboxamide]
The EC50 of the first is higher: 1000 to 10000 nM for the first, < 100 nM for the second.

With `N#Cc1ccc(CN2CCC(NC(=O)c3ccc4c(c3)CN(Cc3ccc(C#N)cc3)CC4)CC2)cc1` [Compound 37, 2-(4-cyanobenzyl)-N-(1-(4-cyanobenzyl)piperidin-4-yl)-1,2,3,4-tetrahydroisoquinoline-7-carboxamide] the EC50 was < 100 nM.
